# According to patent US4609725A, “Cardiac atrial peptides” (Merck & Co., Inc., priority 1984, dated 1986):
# Columns and labels:
# [1] = system: serotonin contracted rat aortae; format: cell-based
# Source text: (§1) Under the conditions described above, conversion of non-iodinated ANF peptide fragment to the iodinated peptide was approximately 48%, based on the absorbance of the respective HPLC fractions and by amino acid analysis.
# [2] = system: serotonin contracted rabbit aortae; format: cell-based
# Source text: as §1
compound,measurement,setting,value
CC[C@H](C)[C@@H]1NC(=O)[C@H](CCCNC(=N)N)NC(=O)[C@H](CC(=O)O)NC(=O)[C@H]([C@@H](C)CC)NC(=O)[C@H](CCCNC(=N)N)NC(=O)CNC(=O)CNC(=O)[C@H](Cc2ccccc2)NC(=O)[C@@H](NC(=O)[C@H](CO)NC(=O)[C@H](CO)NC(=O)[C@H](CCCNC(=N)N)NC(=O)[C@@H](N)CCCNC(=N)N)CSSC[C@@H](C(=O)N[C@@H](CC(N)=O)C(=O)N[C@@H](CO)C(=O)N[C@@H](Cc2ccccc2)C(=O)N[C@@H](CCCNC(=N)N)C(=O)N[C@@H](Cc2ccc(O)c(I)c2)C(=O)O)NC(=O)CNC(=O)[C@H](CC(C)C)NC(=O)CNC(=O)[C@H](CO)NC(=O)[C@H](CCC(N)=O)NC(=O)[C@H](C)NC(=O)CNC1=O [iodinated ANF peptide fragment],IC50,[1],1.05 nM
same,extent of vasorelaxation,[1]; serotonin contracted rat aortae,complete vasorelaxation
same,IC50,[2],1.65 nM
same,extent of vasorelaxation,[2]; serotonin contracted rabbit aortae,complete vasorelaxation
